Measured values as given in patent US8900591B2, “Vaccines comprising mutant GPCRs with increased conformational stability relative to parent receptors” (Heptares Therapeutics Limited, priority 2010, dated 2014).

Assays:
[1] = system: 5-HT2A, 5-HT2B and 5-HT2C serotonin receptors; conditions: cited from earlier work
[2] = system: endogenous β1AR in untransfected HEK293s; assay: CRE-luc reporter assay on untransfected HEK293 cells; type: cell-based, human; conditions: 1 μM forskolin, non-transfected cells
Text: One read-out that can be employed to assess the functional activity of the resulting sera is the impact on cAMP signalling. The CRE-luc reporter assay was employed where the CRE response from activation of AC-cAMP-PKA pathway is the read-out.
The first interim bleeds were initially evaluated only on transfected cells to assess if any functional response could be observed at this stage of immunisation. […].

| SMILES | potency for 5-HT2C receptors relative to 5-HT2A [1] | selectivity for 5-HT2A over 5-HT2B [1] | CRE-luc response to forskolin stimulation [2] |
| --- | --- | --- | --- |
| C[C@@H](N)Cc1c2ccoc2c(Br)c2ccoc12 [Bromo-DragonFLY] | twice as potent | less than 5 × |  |
| C=C[C@@]1(C)CC(=O)[C@]2(O)[C@@]3(C)[C@@H](O)CCC(C)(C)[C@@H]3[C@H](O)[C@H](OC(C)=O)[C@@]2(C)O1 [forskolin] |  |  | ~20,000 RLU |
